“And” between values parts separate entries of the source, which are not always exact repeats. Identical values can stand only once.
Tested on: C. elegans
Conditions: Table S2, C. elegans SS assay, 110 μM, averages of 4 data points

COc1cc(/C=C/C(=O)OC[C@H]2O[C@@H](O[C@@H]3[C@@H](O)[C@H](O)[C@@H](CO)O[C@H]3c3c(OC)cc4oc(-c5ccc(O)cc5)cc(=O)c4c3O)[C@H](O)[C@@H](O)[C@@H]2O)ccc1O [6‴‐Feruloylspinosin]
Percentage of motility inhibition 0 h: 9%
Percentage of motility inhibition 24 h: 13%

COc1cc(O)c2c(=O)cc(-c3ccc(OC)c(OC)c3)oc2c1 [7,3',4'‐Tri‐O‐methylluteolin]
Percentage of motility inhibition 0 h: 13%
Percentage of motility inhibition 24 h: 21%

O=c1cc(-c2ccc(O)cc2)oc2cc(O)ccc12 [7,4'‐Dihydroxyflavone]
Percentage of motility inhibition 0 h: 5%
Percentage of motility inhibition 24 h: 0%

COc1ccc(-c2cc(=O)c3c(O)cc(OC)cc3o2)cc1 [7,4'‐Di‐O‐methylapigenin]
Percentage of motility inhibition 0 h: 0%
Percentage of motility inhibition 24 h: 9%

CC(=O)O[C@@]12CO[C@@H]1C[C@@H](O)[C@@]1(C)C(=O)[C@H](O)C3=C(C)[C@@H](OC(=O)[C@H](O)[C@@H](NC(=O)c4ccccc4)c4ccccc4)C[C@@](O)([C@@H](OC(=O)c4ccccc4)[C@H]21)C3(C)C [7-Epi 10-desacetyl paclitaxel]
Percentage of motility inhibition 0 h: 0%
Percentage of motility inhibition 24 h: 26%

CC(C)CCC[C@@H](C)[C@H]1CC[C@H]2[C@@H]3C(=O)C=C4C[C@@H](O)CC[C@]4(C)[C@H]3CC[C@]12C [7-Ketocholesterol]
Percentage of motility inhibition 0 h: 1%
Percentage of motility inhibition 24 h: 27%

CO[C@H]1c2cc(C(C)C)c(O)c(O)c2[C@@]23CCCC(C)(C)[C@@H]2[C@@H]1OC3=O [7-Methoxyrosmanol]
Percentage of motility inhibition 0 h: 12%
Percentage of motility inhibition 24 h: 18%

CC(=O)O[C@H]1C(=O)[C@@]2(C)[C@H]([C@H](OC(=O)c3ccccc3)[C@]3(O)C[C@H](OC(=O)[C@H](O)[C@@H](NC(=O)c4ccccc4)c4ccccc4)C(C)=C1C3(C)C)[C@]1(OC(C)=O)CO[C@@H]1C[C@@H]2O [7-epi-Taxol]
Percentage of motility inhibition 0 h: 13%
Percentage of motility inhibition 24 h: 11%

C=C1[C@H](O)C[C@H]2[C@@H](/C=C(\C)C(=O)[C@@]3(O)C[C@H](C)[C@H](O)[C@@H]3[C@H]1O)C2(C)C [7beta-Hydroxylathyrol]
Percentage of motility inhibition 0 h: 6%
Percentage of motility inhibition 24 h: 14%

CC(=O)OCC1=C(C(=O)O)N2C(=O)[C@@H](N)[C@H]2SC1 [7‐Aminocephalosporanic acid]
Percentage of motility inhibition 0 h: 3%
Percentage of motility inhibition 24 h: 0%

CCc1c2c(nc3ccccc13)-c1cc3c(c(=O)n1C2)COC(=O)[C@]3(O)CC [7‐Ethylcamptothecin]
Percentage of motility inhibition 0 h: 11%
Percentage of motility inhibition 24 h: 22%

O=c1ccoc2cc(O)ccc12 [7‐Hydroxy‐4H‐chromen‐4‐one]
Percentage of motility inhibition 0 h: 0%
Percentage of motility inhibition 24 h: 8%

Cn1c[n+]([C@@H]2O[C@H](CO)[C@@H](O)[C@H]2O)c2nc(N)[nH]c(=O)c21 [7‐Methylguanosine]
Percentage of motility inhibition 0 h: 0%
Percentage of motility inhibition 24 h: 0%

C[C@@H]1CC[C@@H]2C(C(=O)O)=CO[C@@H](O[C@@H]3O[C@H](CO)[C@@H](O)[C@H](O)[C@H]3O)[C@H]12 [8-Epideoxyloganic acid]
Percentage of motility inhibition 0 h: 2%
Percentage of motility inhibition 24 h: 17%

C[C@H]1[C@H]2[C@H](O[C@@H]3O[C@H](CO)[C@@H](O)[C@H](O)[C@H]3O)OC=C(C(=O)O)[C@H]2C[C@@H]1O [8-Epiloganic acid]
Percentage of motility inhibition 0 h: 4%
Percentage of motility inhibition 24 h: 15%

CC(=O)O[C@@]1(C)C[C@@H](O)[C@]2(O)C=CO[C@@H](O[C@@H]3O[C@H](CO)[C@@H](O)[C@H](O)[C@H]3O)[C@@H]21 [8-O-Acetylharpagide]
Percentage of motility inhibition 0 h: 10%
Percentage of motility inhibition 24 h: 29%

O=c1c2c3c(ccc2cc2n1CCc1cc4c(cc1-2)OCO4)OCO3 [8‐Oxocoptisine]
Percentage of motility inhibition 0 h: 2%
Percentage of motility inhibition 24 h: 30%

CC(=O)OC1CC2(O)C(OC(=O)c3ccccc3)C3C4(OC(C)=O)COC4CC(O)C3(C)C(O)C(OC(C)=O)C(=C1C)C2(C)C (centres unmarked) [9-Dihydro-13-acetylbaccatin III]
Percentage of motility inhibition 0 h: 0%
Percentage of motility inhibition 24 h: 8%

CC[C@@]1(O)C(=O)OCc2c1cc1n(c2=O)Cc2cc3c(OC)cccc3nc2-1 [9‐Methoxycamptothecin]
Percentage of motility inhibition 0 h: 22%
Percentage of motility inhibition 24 h: 0%

COc1ccc2c3ccnc4ccc(=O)n(c2c1)c43 [9‐Methoxycanthin‐6‐one]
Percentage of motility inhibition 0 h: 0%
Percentage of motility inhibition 24 h: 22%

CC(=O)O[C@@]12CO[C@@H]1C[C@H](O[C@@H]1OC[C@@H](O)[C@H](O)[C@H]1O)[C@@]1(C)C(=O)[C@H](O)C3=C(C)[C@@H](OC(=O)[C@H](O)[C@@H](NC(=O)c4ccccc4)c4ccccc4)C[C@@](O)([C@@H](OC(=O)c4ccccc4)[C@H]21)C3(C)C [10-Deacetyl-7-xylosyl paclitaxel]
Percentage of motility inhibition 0 h: 0%
Percentage of motility inhibition 24 h: 14%

CC(=O)O[C@@]12CO[C@@H]1C[C@H](O)[C@@]1(C)C(=O)[C@H](O)C3=C(C)[C@@H](O)C[C@@](O)([C@@H](OC(=O)c4ccccc4)[C@H]21)C3(C)C [10-Deacetylbaccatin III]
Percentage of motility inhibition 0 h: 4%
Percentage of motility inhibition 24 h: 5%

CC(=O)O[C@@]12CO[C@@H]1C[C@H](O)[C@@]1(C)C(=O)[C@H](O)C3=C(C)[C@@H](OC(=O)[C@H](O)[C@@H](NC(=O)c4ccccc4)c4ccccc4)C[C@@](O)([C@@H](OC(=O)c4ccccc4)[C@H]21)C3(C)C [10-Deacetyltaxol]
Percentage of motility inhibition 0 h: 17%
Percentage of motility inhibition 24 h: 0%

C=CCCCCCCCCC(=O)O [10-Undecenoic acid]
Percentage of motility inhibition 0 h: 0%
Percentage of motility inhibition 24 h: 6%

CC[C@@]1(O)C(=O)OCc2c1cc1n(c2=O)Cc2cc3cc(OC)ccc3nc2-1 [10‐Methoxycamptothecin]
Percentage of motility inhibition 0 h: 0%
Percentage of motility inhibition 24 h: 0%

C=CCCCCCCCCC(=O)[O-].C=CCCCCCCCCC(=O)[O-].[Zn+2] [10‐Undecenoic acid (zinc salt)]
Percentage of motility inhibition 0 h: 43%
Percentage of motility inhibition 24 h: 35%

C[C@H](CC[C@@H](O[C@@H]1O[C@H](CO[C@@H]2O[C@H](CO)[C@@H](O)[C@H](O)[C@H]2O)[C@@H](O)[C@H](O)[C@H]1O[C@@H]1O[C@H](CO)[C@@H](O)[C@H](O)[C@H]1O)C(C)(C)O)[C@H]1CC[C@@]2(C)[C@@H]3CC=C4[C@@H](CC[C@H](O[C@@H]5O[C@H](CO[C@@H]6O[C@H](CO)[C@@H](O)[C@H](O)[C@H]6O)[C@@H](O)[C@H](O)[C@H]5O)C4(C)C)[C@]3(C)CC[C@]12C [11-Deoxymogroside V]
Percentage of motility inhibition 0 h: 0%
Percentage of motility inhibition 24 h: 10%

C[C@H]1[C@H](C)CC[C@]2(C)CC[C@]3(C)C(=CC(=O)[C@@H]4[C@@]5(C)CC[C@@H](O)[C@](C)(C(=O)O)[C@@H]5CC[C@]43C)[C@H]12 [11-Keto-beta-boswellic acid]
Percentage of motility inhibition 0 h: 2%
Percentage of motility inhibition 24 h: 0%

C[C@H](CC[C@@H](O[C@@H]1O[C@H](CO)[C@@H](O)[C@H](O)[C@H]1O[C@H]1O[C@@H](CO)[C@H](O)[C@@H](O)[C@@H]1O)C(C)(C)O)C1CC[C@@]2(C)C3CC=C4C(CC[C@H](O)C4(C)C)[C@]3(C)C(=O)C[C@]12C (some centres unmarked) [11-Oxomogroside IIa]
Percentage of motility inhibition 0 h: 0%
Percentage of motility inhibition 24 h: 0%

C[C@H](CC[C@@H](O[C@@H]1O[C@H](CO[C@@H]2O[C@H](CO)[C@@H](O)[C@H](O)[C@H]2O)[C@@H](O)[C@H](O)[C@H]1O[C@@H]1O[C@H](CO)[C@@H](O)[C@H](O)[C@H]1O)C(C)(C)O)[C@H]1CC[C@@]2(C)[C@@H]3CC=C4[C@@H](CC[C@H](O[C@@H]5O[C@H](CO[C@@H]6O[C@H](CO)[C@@H](O)[C@H](O)[C@H]6O)[C@@H](O)[C@H](O)[C@H]5O)C4(C)C)[C@]3(C)C(=O)C[C@]12C [11-oxo-mogroside V]
Percentage of motility inhibition 0 h: 3%
Percentage of motility inhibition 24 h: 24%

COc1c(C(C)C)cc2c(c1O)C1(C(=O)O)CCCC(C)(C)C1CC2 (centres unmarked) [12-O-Methylcarnosic acid]
Percentage of motility inhibition 0 h: 5%
Percentage of motility inhibition 24 h: 11%

C=C1C2CC3(C1O)C1CC4C5(C)CCC(O)C4(C1N(CC)C5)C3CC2O (centres unmarked) [12‐Epinapelline]
Percentage of motility inhibition 0 h: 0%
Percentage of motility inhibition 24 h: 9%

CCc1ccc(O)c2cc3c(nc12)-c1cc2c(c(=O)n1C3)COC(=O)[C@]2(O)CC [12‐Ethyl‐9‐hydroxycamptothecin]
Percentage of motility inhibition 0 h: 16%
Percentage of motility inhibition 24 h: 27%

COc1ccc2c(C)c3[n+](cc2c1OC)CCc1cc2c(cc1-3)OCO2.[Cl-] [13‐Methylberberine (chloride)]
Percentage of motility inhibition 0 h: 0%
Percentage of motility inhibition 24 h: 0%

C=C1CC[C@@H]2[C@](C)(CO)[C@H](O)CC[C@]2(C)[C@@H]1/C=C/C1=CCOC1=O [14-Deoxy-11,12-didehydroandrographolide]
Percentage of motility inhibition 0 h: 0%
Percentage of motility inhibition 24 h: 6%

C/C=C1/CN2[C@H]3Cc4c([nH]c5ccccc45)[C@]2(O)C[C@@H]1[C@@]3(CO)C(=O)OC [16‐Epivoacarpine]
Percentage of motility inhibition 0 h: 7%
Percentage of motility inhibition 24 h: 2%

C/C1=C\[C@@H]2[C@H](C/C=C(/CO)[C@@H](O)[C@@H]3[C@@H](O)[C@@H](C)C[C@]3(O)C1=O)C2(C)C [17-Hydroxyisolathyrol]
Percentage of motility inhibition 0 h: 13%
Percentage of motility inhibition 24 h: 29%

CC1(C)[C@@H](O)CC[C@]2(C)[C@H]3C(=O)C=C4[C@@H]5C[C@@](C)(C(=O)O)CC[C@]5(C)CC[C@@]4(C)[C@]3(C)CC[C@@H]12 [18β-Glycyrrhetinic acid]
Percentage of motility inhibition 0 h: 15% and 6%

CC(C)=CCC[C@@](C)(O)[C@H]1CC[C@]2(C)[C@@H]1[C@H](O)C[C@@H]1[C@@]3(C)CC[C@H](O)C(C)(C)[C@@H]3[C@@H](O[C@@H]3O[C@H](CO)[C@@H](O)[C@H](O)[C@H]3O[C@@H]3O[C@@H](C)[C@H](O)[C@@H](O)[C@H]3O)C[C@]12C [20(R)-Ginsenoside Rg2]
Percentage of motility inhibition 0 h: 0%
Percentage of motility inhibition 24 h: 8%

Source: publication PMC11855827, “High-Throughput Screening of Five Compound Libraries for Anthelmintic Activity and Toxicity Leads to the Discovery of Two Flavonoid Compounds” (International Journal of Molecular Sciences, 2025)
